System: HaCaT cells
Experiment: MTT cell viability assay, HaCaT
Assay type: cell-based, human
Conditions: 100 μM
In short: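 HaCaT cells seeded, grown 24 h (37 °C, 5% CO2), then exposed 24 h to each compound at 100 μM in DMEM; MTT added for 4 h, formazan dissolved in DMSO, OD read at 540 nm (reference 720 nm). Triplicates versus untreated cells, no-cell blank and 100 μM silibinin as cell-killing standard.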

## Cc1c(-c2ccc(Cl)cc2)c(=O)oc2cccc(O)c12 [Compound 4c, 3-(4-chlorophenyl)-5-hydroxy-4-methyl-chromen-2-one]
  cytotoxicity in HaCaT: 63.7%

## Cc1c(-c2ccc(O)cc2)c(=O)oc2ccc(Cl)cc12 [Compound 4j, 6-chloro-3-(4-hydroxyphenyl)-4-methyl-chromen-2-one]
  cytotoxicity in HaCaT: 73%
